Source: paper PMC4515242, “ESR and X-ray Structure Investigations on the Binding and Mechanism of Inhibition of the Native State of Myeloperoxidase with Low Molecular Weight Fragments” (Applied Magnetic Resonance, 2015)

What was measured:
Human Myeloperoxidase = target: T1, Human Myeloperoxidase (Homo sapiens, UniProt P05164); assay: X-ray co-crystal growth by soaking MPO crystals with inhibitor; conditions: crystals soaked with 50 mM inhibitor
T1 construct: purchased Lee Biosciences 426-10
T1 sequence (P05164 49-745): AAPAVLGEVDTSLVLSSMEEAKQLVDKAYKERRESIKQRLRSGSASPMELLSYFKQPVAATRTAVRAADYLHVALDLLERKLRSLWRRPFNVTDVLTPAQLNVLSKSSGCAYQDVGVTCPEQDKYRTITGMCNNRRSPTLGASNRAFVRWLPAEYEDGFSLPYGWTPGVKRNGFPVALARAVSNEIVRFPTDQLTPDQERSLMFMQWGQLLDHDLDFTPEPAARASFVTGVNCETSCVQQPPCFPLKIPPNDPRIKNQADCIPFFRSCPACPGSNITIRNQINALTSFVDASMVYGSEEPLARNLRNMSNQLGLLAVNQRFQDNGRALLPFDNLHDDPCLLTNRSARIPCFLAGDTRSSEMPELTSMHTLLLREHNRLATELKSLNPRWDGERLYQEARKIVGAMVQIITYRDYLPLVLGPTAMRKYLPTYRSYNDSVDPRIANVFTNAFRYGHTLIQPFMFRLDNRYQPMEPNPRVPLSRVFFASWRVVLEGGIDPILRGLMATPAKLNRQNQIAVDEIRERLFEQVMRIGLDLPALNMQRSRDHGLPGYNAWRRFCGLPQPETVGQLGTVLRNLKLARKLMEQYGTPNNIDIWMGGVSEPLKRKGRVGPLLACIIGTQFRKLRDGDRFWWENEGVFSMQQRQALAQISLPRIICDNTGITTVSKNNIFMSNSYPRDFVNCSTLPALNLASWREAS
Experimental: Human Myeloperoxidase and co-crystals of MPO were crystallized and analyzed using methods similar to those described by Davey and Fenna. Briefly, hanging drops of 25 mg/mL MPO, 25 mM sodium acetate pH 5.0, 50 mM NaCl, 50 mM ammonium sulfate, 2 mM calcium chloride, and 3-10 % polyethylene glycol 8000 were set up at 21 °C over reservoir solutions containing 300 mM sodium chloride. Crystals of the space group P21 and having two MPO subunits per asymmetric unit grew with the aid of micro-seeding as very thin plates having a brownish orange tinge. Crystals were soaked with inhibitor compounds at a concentration of 50 mM, in a stabilizing buffer containing 18 % polyethylene glycol 8000, 56 mM ammonium sulfate, 2.2 mM calcium acetate, and 56 mM HEPES pH 7.0. Co-crystals were cryo-protected in a stabilizing buffer containing 22.2 % methylpentanediol prior to flash cooling in liquid nitrogen.
Diffraction data were collected at 100 K using Synchrotron beam line 31ID at the Advanced Photon Source (Argonne National Laboratory) and were integrated using MOSFLM v.6.2.6 [18]. […] Inhibitor binding to the MPO heme group was indicated by appropriately shaped peaks in the Fo–Fc electron density maps. The inhibitor was included in the model, and iterative cycles of manual model building with COOT [20] and restrained refinement with REFMAC v5.2.0019 [21] were used to complete the overall structure. Figures of the crystal structure were generated using PYMOL (www.pymol.org). […] The higher B-factors for the inhibitor molecules could be attributed to inhibitor occupancies of less than 1.0 or to higher degrees of thermal motion associated with the inhibitors. Lower than expected electron density peak heights were also observed for the Cl atom in the inhibitors, which could be due to the radiation damage to this X-Ray sensitive group.

[1] = ABTS radical cation decolorization assay to measure the antioxidant capacity; conditions: % inhibition at 20 uM single dose, read at 734 nm after 30 min
Experimental: The assay was modeled after the published procedure. Briefly, ABTS radical cation was prepared by adding 100 μl of 70 mM K2S2O8 to 10 ml ABTS, followed by vortexing and incubating at 37 °C water bath for 2 h. […] Trolox standards are dissolved in water. The reaction is started by adding the ABTS radical cation solution to the MPO inhibitors or Trolox (final concentration 20 μM). The plate is gently shaken for 1 min and then set on a bench top at room temperature for 30 min.

[2] = target: T2, native state (Fe3+) of hMPO (Homo sapiens, UniProt P05164); assay: Low temperature ESR binding assay (binding-induced g shift, Rrelative); conditions: for ESR Rrelative: Rrelative = (Rbound - Rnative)/Rnative x 100, inhibitor:MPO 40:1, pH 6, 6 % DMSO, 4-7 K; for ESR Binding: class by Rrelative, inhibitor:MPO 40:1; for Δg: absolute difference between g X and g Y of the bound complex; for g X / g Y: electronic g value of the bound complex, X-band ESR, 5 K
T2 construct: purchased Athens Research and Technology
T2 sequence (P05164 49-745): T1 sequence (P05164 49-745)
Experimental: After 5-min. incubation at room temperature, the entire reaction mixture (0.235 mL) was transferred to the ESR quartz tubes. To avoid the quartz tubes breaking during the rapid freezing cycles, the ESR tubes were initially frozen in a 1:1 Isopentane-Cyclohexane mixture cooled with dry ice powder and then transferred to a liquid nitrogen Dewar to be queued up for ESR measurements. The reaction mixture contained a final concentration of 6 % DMSO. ESR spectra were recorded on a Varian E-12, X-band spectrometer equipped with an Air Products liquid helium cryostat.
The experimental g values correspond to the spin Hamiltonian pertinent to the high-spin ion (S = 5/2).1 H=DSZ2-1/3SS+1+E/DSX2-SY2+βgeS.Be where D and E are the eigen values of the axial and rhombic field components, i.e., the symmetry of the ligand (inhibitors approaching heme in this case). […] When the heme lodges inside the protein, the protein side chain amino acid (histidine) approaches the heme vicinity and either binds (axially) directly to the iron in the heme pocket. […] Thus, the fifth ligand leads to lower (rhombic) symmetries causing the signal at g ~ 6 to split. This non-tetragonal splitting of the heme is quantitated by the relationship,2 E/D=Δg/48 where ∆g represents the absolute difference between the gX and gY components. Alternatively, making use of the fact that E/D maximum value = 1/3, one can simplify the above expression as a percentage of rhombicity, R:3 R=Δg/16×100%. […] To rank-order molecules in terms of their ability to distort the heme pocket/plane environment, we used a ratio of total distortion in the bound complex w.r.t. distortion seen in the native unbound enzyme:4 Rrelative=Rbound-Rnative/Rnative×100.
From the relative rhombicities of the bound and unbound complex, a measure of the strength of binding could be derived. […] For the ease of classification, we have empirically defined those with 5 ≤ Rrelative ≥ 2 as weak binding; 15 ≥ Rrelative ≥ 10 as moderate binding; and 25 ≥ Rrelative ≥ 15 as strong binding (Table 2).

hMPO = target: T3, hMPO (Homo sapiens, UniProt P05164); assay: Alpha screen assay: inhibition of MPO-initiated nitration of the Apo-A1 peptide ([…]); assay type: biochemical; conditions: MPO 11.8 nM, pH 7.4, 45 min RT
T3 construct: purchased Biodesign A31804H
T3 sequence (P05164 49-745): T1 sequence (P05164 49-745)
Experimental: In a typical experiment, MPO (11.8 nM final concentration) in 20 mM phosphate buffer pH 7.4, 10 % glycerol and 0.005 % gelatin (PB) is added to each well of a multi-well plate containing 20 μl PB ± compound (final concentration of DMSO = 0.9 %). The reaction is started by the addition of 20 μl PB containing 1.5 μM ApoAI peptide substrate, 300 μM diethylenetriaminepentaacetic acid (DTPA), 300 μM sodium nitrite, and 30 μM H2O2. The total reaction volume is 60 μl. The plates are incubated with agitation for 45 min at RT. The reaction is terminated with the addition of 20 μl of a stop solution containing 11.2 nM rabbit anti-nitrotyrosine antibody (final conc. of 2.8 nM), 100 μg/ml streptavidin donor beads, and 100 μg/ml protein A acceptor beads (final concentration of […]), FBS (1.6 % final concentration) in Superblock buffer. The plates are sealed, incubated in the dark for 1 h, and read on a Packard Fusion alpha plate reader.
Through a chloride independent pathway, MPO catalyzes the one electron oxidation of nitrite ions to nitrogen dioxide radicals which then […] protein amino acids like Tyrosine. We used the Apo-A1 peptide substrate ([…]) to follow the nitration of the Tyrosine (indicated by Y in the scheme below): MPO+H2O2→Compound INO2-+Compound I→NO2·+Compound II [drawing 1] Our initial experiments focused on identifying inhibitors that bind to the heme to inhibit the above catalytic action. A representative set of inhibitors is collected in Fig. 1a (strong binders, vide infra) and b (non binders, vide infra).

Row | Structure (SMILES) | X ray Cocrystal result (Human Myeloperoxidase) | % Anti oxidant potential [1] | ESR Rrelative [2] | ESR Binding [2] | IC50 (hMPO) | Δg [2] | g X [2] | g Y [2]
1 | O=C(NO)c1ccccc1O [LSN13243] | Yes | 74.9% | 14.7 | Moderate (15 ≥ Rrelative ≥ 10 as moderate binding) | 5.9 µM |  |  | 
2 | S=c1[nH]nc(-c2ccncc2)o1 [LSN19450] | No | 85.8% | 0 | No | 3.99 µM |  |  | 
3 | O=C(O)c1n[nH]c2ccccc12 [LSN23500] | No | 0% | 2.4 | Weak (5 ≤ Rrelative ≥ 2 as weak binding) | 160 µM | 1.875 | 6.789 | 4.914
4 | Cc1c(N)n[nH]c1-c1ccccc1 [LSN27223] | No | 32.7% | 3.3 | Weak (5 ≤ Rrelative ≥ 2 as weak binding) | 0.698 µM |  |  | 
5 | O=C1CC(c2ccc(Cl)cc2)=NN1 [LSN34893] | No | 53.4% | 0.2 | No | 0.219 µM |  |  | 
6 | Cc1cc(C)c2c(O)n[nH]c2n1 [LSN42503] | No | 82.5% | 0.3 | No | 0.168 µM |  |  | 
7 | Cc1cc(O)nc2[nH]nc(O)c12 [LSN66421] | No | 10.4% | 0.2 | No | 0.406 µM |  |  | 
8 | NC(=O)c1n[nH]cc1O [LSN104607] | No | 1.56% | 0 | No | 0.667 µM |  |  | 
9 | O=[N+]([O-])c1c(O)ncnc1O [LSN106019] | Yes | 0% | 29.2 | Strong (25 ≥ Rrelative ≥ 15 as strong binding) | 538 µM | 2.31 | 7.023 | 4.713
10 | Cc1cc(C(F)(F)F)c(C#N)c(=O)[nH]1 [LSN131429] | Yes | 9% | -28.6 | Strong (25 ≥ Rrelative ≥ 15 as strong binding) | 138 µM | 1.344 | 6.559 | 5.215
11 | Oc1nnc(-c2ccccc2)s1 [LSN227931] | No | 0% | 0.2 | No | 333 µM |  |  | 
12 | Oc1n[nH]c2c1CCC2 [LSN386639] | No | 38.2% | 0.2 | No | 0.396 µM |  |  | 
13 | Sc1nnc(-c2cccnc2)o1 [LSN811183] | Yes | 95.9% | 16.5 | Strong (25 ≥ Rrelative ≥ 15 as strong binding) | 73 µM | 2.115 | 6.924 | 4.809
14 | Fc1ccccc1-c1n[nH]c(=S)o1 [LSN2303506] | Yes | 97.7% | 21.7 | Strong (25 ≥ Rrelative ≥ 15 as strong binding) | 27.9 µM | 2.1759 | 6.9749 | 4.799
